Assay results taken from patent publication US7410986B2, “4-6-diphenyl pyridine derivatives as antiinflammatory agents” (Bayer Aktiengesellschaft, priority 2000, dated 2008).
Counter-ions that a name gives are not always drawn. Like-named read-outs stand apart in the source and are kept apart here.

Assays:
human IKK-β = target: T1, human IKK-β (Homo sapiens, UniProt O14920); assay: IKK-β kinase inhibitory assay; type: biochemical; conditions: compounds of about 40 to 90% purity, read-out: In vitro activity grade (invitro, IC50)
T1 construct: A cDNA fragment encoding human IKK-β open reading frame was generated by PCR; His; made in house; host or cells: Sf21 insect cells (baculovirus); the GST-IκBα substrate was made in E. coli
T1 sequence (O14920 1-756): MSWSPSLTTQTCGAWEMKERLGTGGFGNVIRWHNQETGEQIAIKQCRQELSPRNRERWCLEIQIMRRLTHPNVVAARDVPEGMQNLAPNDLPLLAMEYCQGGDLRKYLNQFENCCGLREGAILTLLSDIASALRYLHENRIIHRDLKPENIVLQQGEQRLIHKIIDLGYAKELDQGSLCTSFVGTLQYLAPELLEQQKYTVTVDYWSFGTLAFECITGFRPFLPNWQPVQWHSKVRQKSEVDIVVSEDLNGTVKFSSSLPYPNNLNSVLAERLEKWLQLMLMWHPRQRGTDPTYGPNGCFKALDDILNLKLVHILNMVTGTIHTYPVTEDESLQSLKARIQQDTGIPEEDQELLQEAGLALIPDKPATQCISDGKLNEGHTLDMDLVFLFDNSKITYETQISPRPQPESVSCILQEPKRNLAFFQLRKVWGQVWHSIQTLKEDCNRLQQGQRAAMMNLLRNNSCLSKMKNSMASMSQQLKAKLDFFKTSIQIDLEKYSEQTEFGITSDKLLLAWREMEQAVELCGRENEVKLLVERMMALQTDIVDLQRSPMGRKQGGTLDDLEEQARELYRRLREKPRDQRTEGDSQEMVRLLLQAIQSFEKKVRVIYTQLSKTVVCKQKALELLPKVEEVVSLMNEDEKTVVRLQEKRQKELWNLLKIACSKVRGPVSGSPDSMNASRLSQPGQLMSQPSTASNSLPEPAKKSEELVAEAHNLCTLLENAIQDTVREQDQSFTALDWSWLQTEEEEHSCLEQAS
From the text: IKK-β Kinase Inhibitory Assay.
• (1) Preparation of IKK-β Kinase Protein. • A cDNA fragment encoding human IKK-β open reading frame was generated by PCR with the use of a pair of primers designed from the published sequence (Woronicz J D et al. (1997) Science 278,866-869). A template was obtained from Quickclone cDNA (Clontech) using Elongase™ Amplification kit (Life Technologies). The DNA fragments generated by PCR were gel-purified and subcloned into pBluescript. The cDNA fragment cloned in pBluescript was inserted into pcDNA3.1/His C KpnI/NotI, and transferred into pVL1393 SmaI/XbaI (Pharmingen) to construct a baculovirus transfer vector. Then the vector, together with the linearized baculovirus (BaculoGold™, Pharmingen) was used to transfect Sf21 cells (Invitrogen, San Diego, Calif.). Generated recombinant baculovirus was cloned and amplified in Sf21 cells, grown in TNM-FH insect cell medium (Life Technologies, Inc.) supplemented with 10% FCS, […] Gentamycin, 0.1% Pluronic F-68 (Life Technologies, Inc.) as suspension culture (200 ml in 1 L Erlenmeyer flask; 27° C.; 130 rpm). Sf21 cells were infected with this amplified virus with a multiplicity of infection of 5 following standard protocols (Crossen R, Gruenwald S (1997) Baculovirus Expression Vector System Instruction Manual, Pharmingen Corporation) and harvested 48 hrs. later. The cells were lysed to obtain the produced chimeric protein of IKK-β kinase fused by histidine (His-tagged IKK-beta). • (2) The Preparation of Purified GST-IκBα Fusion Proteins • An expression vector containing the nucleotide sequence encoding fusion protein of GST with amino acid residues 1 to 54 of IκBα under the control of an IPTG-inducible promoter was constructed. The expression vector was introduced in E. coli and the transformant was cultured and lysed to obtain a GST-IκBα fusion protein. Then the resulting GST-IκBα fusion protein was purified and biotinated for kinase assay. • (3) The Measurement of IKK-β Kinase Activity • The 96-well format kinase assay of IKK-β was performed to test the inhibitory activity of the compounds of the present invention. First, 5 μl of a test compound was put in the presence of 2.5% dimethyl sulfoxide (DMSO) in each well in a U-bottomed 96-well plate (Falcon). For control wells of background (BG) and total phosphorylation (TP), 5 μl of 2.5% DMSO was put. Recombinant IKK-β (final 0.6 μg/ml) and bio-GST-IκBα (1-54) (final 0.2 μM) were diluted in 25 μl of 2×kinase buffer β (40 mM Tris-HCl, pH 7.6, 40 mM MgCl2, 40 mM β-glycerophosphate, 40 mM p-nitrophenyl-phosphate, 2 mM EDTA, 40 mM creatine phosphate, 2 mM DTT, 2 mM Na3VO4, 0.2 mg/ml BSA and 0.8 mM phenylmethylsulfonyl fluoride) and transferred to the 96-well plate. Bio-GST-IκBα (1-54) in 25 μl of 2×kinase buffer β without IKK-β was transferred to BG wells. Then 20 μl of 12.5 μM ATP, 62.5 μCi/ml [γ-^33P] ATP (Amersham Pharmacia Biotech) was added and the resulting mixture was incubated for 2 hrs. at room temperature. The kinase reactions were terminated by the addition of 150 μl of termination buffer (100 mM EDTA, 1 mg/ml BSA, 0.2 mg NaN3). One handred and fifty μl of the sample was transferred to a streptavidin-coated, white MTP (Steffens Biotechniche Analysen GmbH #08114E14. FWD) to capture the biotinylated substrates. After 1 hr. of incubation, non-bound radioactivity was eliminated by washing the wells five times with 300 μl of washing buffer including 0.9% NaCl and 0.1% (w/v) Tween-20 with the use of a MW-96 plate washer (BioTec). The bound radioactivity was determined after the addition of 170 μl MicroScint-PS scintillation cocktail (Packard) using a TopCount scintillation counter. Syk Tyrosine Kinase Inhibitory Assay for Selectivity. • (1) Preparation of Syk Protein • A cDNA fragment encoding human Syk openreading frame was cloned from total RNA of human Burkitt's lymphoma B cell lines, Raji (American Type Culture Collection), with the use of RT-PCR method. […]

[1] = test system: RANTES production in response to TNF-α from A549 cells; assay: RANTES production in response to TNF-α from A549 cells; type: cell-based, human; conditions: 100 ng/ml TNF-α, compounds of about 40 to 90% purity, read-out: Cellular activity grade (A549, IC50)

| Compound | IC50 (human IKK-β) | IC50 ([1]; Homo sapiens, A549, 24 h) | IC50 ([1]; 24 hrs) |
| --- | --- | --- | --- |
| N#Cc1c(-c2ccc(NC(=O)CCN3CCCCC3)cc2)cc(-c2ccccc2O)nc1N [Example 2-05] | 0.5 to 2 µM | > 10 µM |  |
| COCC(=O)Nc1cccc(-c2cc(-c3ccccc3O)nc(N)c2C#N)c1 [Example 1-04] | 0.5 to 2 µM | > 10 µM |  |
| N#Cc1c(-c2ccc(NC(=O)C(O)CCC(=O)O)cc2)cc(-c2ccccc2O)nc1N (centres unmarked) [Example 1-10] | < 0.5 µM | > 10 µM |  |
| N#Cc1c(-c2cccc(NC(=O)C[C@H](N)C(=O)O)c2)cc(-c2ccccc2O)nc1N [Example 2-02] | 0.5 to 2 µM |  | > 10 µM |
| COc1cccc(O)c1-c1cc(-c2cccc(NC(=O)C(O)CCC(=O)O)c2)c(C#N)c(N)n1 (centres unmarked) [Example 1-13] | 0.5 to 2 µM | > 10 µM |  |
| CC(C)C[C@H](N)C(=O)Nc1ccc(F)c(-c2cc(-c3ccccc3O)nc(N)c2C#N)c1 [Example 2-11] | 0.5 to 2 µM | 1 to 10 µM |  |
| N#Cc1c(-c2cccc(O)c2)cc(-c2ccccc2O)nc1N [Example 1-23] | < 0.5 µM | 1 to 10 µM |  |
| N#Cc1c(-c2cc(NC(=O)CCN3CCCCC3)ccc2F)cc(-c2ccccc2O)nc1N [Example 2-14] | 0.5 to 2 µM | 1 to 10 µM |  |
| COc1ccc(O)c(-c2cc(-c3cccc(NC(=O)C(O)CCC(=O)O)c3)c(C#N)c(N)n2)c1 (centres unmarked) [Example 1-18] | 2 to 10 µM | > 10 µM |  |
| CS(=O)(=O)Nc1cccc(-c2cc(-c3ccccc3O)nc(N)c2C#N)c1 [Example 1-06] | 2 to 10 µM | 1 to 10 µM |  |
| CC(=O)Nc1cccc(-c2cc(-c3ccccc3O)nc(N)c2C#N)c1 [Example 1-14] | > 10 µM | > 10 µM |  |
| N#Cc1c(-c2cccc(N)c2)cc(-c2ccccc2O)nc1N [Example 1-08] | > 10 µM |  | > 10 µM |
| N#Cc1c(-c2ccc(Cl)c(NC(=O)C(O)CCC(=O)O)c2)cc(-c2ccccc2O)nc1N (centres unmarked) [Example 1-15] | < 0.5 µM | > 10 µM |  |
| N#Cc1c(-c2cccc(NC(=O)CCCC(=O)O)c2)cc(-c2ccccc2O)nc1N [Example 1-19] | 0.5 to 2 µM | > 10 µM |  |

The remaining lines, values ahead:

| IC50 (human IKK-β) | IC50 ([1]; Homo sapiens, A549, 24 h) | IC50 ([1]; 24 hrs) | Compound |
| --- | --- | --- | --- |
| 0.5 to 2 µM | 1 to 10 µM |  | N#Cc1c(-c2cccc(NC(=O)CN3CCN(C4CCCCC4)CC3)c2)cc(-c2ccccc2O)nc1N [Example 4-04] |
| < 0.5 µM | 1 to 10 µM |  | CN(C)c1ccc(-c2cc(-c3ccccc3O)nc(N)c2C#N)cc1NC(=O)CCN1CCCCC1 [Example 3-08] |
| < 0.5 µM | 1 to 10 µM |  | N#Cc1c(-c2ccc(N3CCC(N)C3)c(NC(=O)CCN)c2)cc(-c2ccccc2O)nc1N (centres unmarked) [Example 3-02] |
| < 0.5 µM | 1 to 10 µM |  | N#Cc1c(-c2ccc(N3CCC(NC(=O)C(F)(F)F)C3)c(NC(=O)CCN3CCCCC3)c2)cc(-c2ccccc2O)nc1N (centres unmarked) [Example 3-17] |
| 2 to 10 µM | > 10 µM |  | Nc1cccc(-c2cc(-c3ccccc3O)nc(N)c2C(=O)O)c1 [Example 7-1, Sodium 2-amino-4-(3-aminophenyl)-6-(2-hydroxyphenyl)nicotinate] |
| < 0.5 µM | 1 to 10 µM |  | N#Cc1c(-c2cccc(NC(=O)CNCC3CC3)c2)cc(-c2ccccc2O)nc1N [Example 4-18] |
| < 0.5 µM | 1 to 10 µM |  | N#Cc1c(-c2ccc(N3CCCCC3)c(NC(=O)CCN)c2)cc(-c2ccccc2O)nc1N [Example 3-03] |
| 2 to 10 µM | 1 to 10 µM |  | N#Cc1c(-c2ccc(N3CCCCC3)c(NC(=O)CCN3CCCCC3)c2)cc(-c2ccccc2O)nc1N [Example 3-10] |
| 2 to 10 µM | > 10 µM |  | N#Cc1c(-c2cccc(C(=O)O)c2)cc(-c2ccccc2O)nc1N [Example 5-1, Sodium 3-[2-amino-3-cyano-6-(2-hydroxyphenyl)-4-pyridinyl]benzoate] |
| 2 to 10 µM | 1 to 10 µM |  | CCOC(=O)C1CCCN(CCC(=O)Nc2cccc(-c3cc(-c4ccccc4O)nc(N)c3C#N)c2)C1 (centres unmarked) [Example 4-27] |
| 2 to 10 µM | 1 to 10 µM |  | CN(C)c1ccc(NC(=O)CCN2CCCCC2)cc1-c1cc(-c2ccccc2O)nc(N)c1C#N [Example 3-09] |
| 0.5 to 2 µM | 1 to 10 µM |  | N#Cc1c(-c2cccc(NC(=O)CCNCC3CC3)c2)cc(-c2ccccc2O)nc1N [Example 4-21] |
| 0.5 to 2 µM | > 10 µM |  | N#Cc1c(-c2cccc(NC(=O)CCN3CCCC(C(=O)O)C3)c2)cc(-c2ccccc2O)nc1N (centres unmarked) [Example 4-29] |
| 0.5 to 2 µM | 1 to 10 µM |  | N#Cc1c(-c2cccc(NC(=O)CNC3CCCC3)c2)cc(-c2ccccc2O)nc1N [Example 4-17] |
| 0.5 to 2 µM | 1 to 10 µM |  | CC(C)C[C@H](N)C(=O)Nc1cc(-c2cc(-c3ccccc3O)nc(N)c2C#N)ccc1N1CCC[C@H]1CO [Example 3-11] |
| < 0.5 µM | 1 to 10 µM |  | N#Cc1c(-c2ccccc2C(=O)NCCN2CCCCC2)cc(-c2ccccc2O)nc1N [Example 6-03] |
| 0.5 to 2 µM | 1 to 10 µM |  | CN(C)CC(=O)Nc1cccc(-c2cc(-c3ccccc3O)nc(N)c2C#N)c1 [Example 4-22] |
| 0.5 to 2 µM | > 10 µM |  | CCOC(=O)C1CCN(CCC(=O)Nc2cccc(-c3cc(-c4ccccc4O)nc(N)c3C#N)c2)CC1 [Example 4-26] |
| 2 to 10 µM | 1 to 10 µM |  | N#Cc1c(-c2cccc(NC(=O)CCN3CCN(Cc4ccccc4)CC3)c2)cc(-c2ccccc2O)nc1N [Example 4-11] |
| 0.5 to 2 µM | 1 to 10 µM |  | N#Cc1c(-c2ccc(N3CCCC3)c(NC(=O)CCN3CCCCC3)c2)cc(-c2ccccc2O)nc1N [Example 3-1, N-[5-[2-amino-3-cyano-6-(2-hydroxyphenyl)-4-pyridinyl]-2-(1-pyrrolidinyl)phenyl]-3-(1-piperidinyl)propanamide hydrochloride] |
